One assay concerns isolated heart. The assay is described as follows: Isolated heart subjected to hypoxia-reoxygenation. Also on record: species or system WISTAR rat. Conditions: after 30 minutes of reoxygenation. As to the method:
The heart is removed from WISTAR rats (325-375 g). The heart is rapidly perfused according to the technique of LANGENDORFF at a constant pressure of 101.310^2 Pa and electrically stimulated at 5 Hz. Isovolumetric contractions are recorded by means of a polyethylene ballonet linked to a pressure sensor (P23-GOULD) introduced into the left ventricle and inflated so as to obtain a diastolic pressure of between 6.710^2 and 13.310^2 Pa. c) Protective effect of the compounds of the invention on an isolated heart subjected to hypoxia-reoxygenation. An experimental procedure similar to that described in the preceding test is followed, the ischemia-reperfusion stage being replaced by a 60 min hypoxia produced by the administration of a 95% N2 +5% CO2 gaseous mixture during this period and followed by a 30 min reoxygenation. The test compounds are incubated for 15 min before and during the period of hypoxia.

The test system of assay [1] is vasopressor effect of phenylephrine. Put plainly: Cardiovascular reactivity to phenylephrine in wakeful rats, oral administration. The format is in vivo, WISTAR rat. The procedure: After a 30 to 60 min period of stabilization of wakeful WISTAR rats, a range of concentrations of phenylephrine (between 0 and 16 μg/kg) is injected intravenously.
Reading of the mean blood pressure and heart rate is carried out at the point where the pressor effect reaches its maximum. After a washing time of at least 2 hours, the test compound is administered intravenously (10 mg/kg) followed 15 minutes later by a new range of phenylephrine.
b) Effects of the compounds of the invention, administered orally, on the cardiovascular reactivity of phenylephrine.
The procedure is carried out as above but the intravenous administration of the test compounds is replaced by oral administration (5, 10 and 20 mg/kg) of the test compound. The phenylephrine range is repeated 0.5, 1, 2, 3, 4, 5 and 6 hours after administration of the compound.

A further assay has as its system pig coronary artery. Put plainly: Vascular contraction of pig coronary artery induced by acetylcholine. As to conditions: Sus scrofa, 10^-5 M, preincubated 15 minutes. As to the method: Studies are carried out on rings, 3 mm in length, - or of coronary arteries from pigs anesthetized with nesdonal (8 mg/kg intravenously). The vascular rings are immersed in a normal physiological solution or in a physiological solution lacking calcium (+0.2 mM of the chelating agent EGTA), which is thermostatically regulated at 37° C. and aerated with a 95% O2 +5% CO2 mixture. The rings are linked to a STATHAM tension sensor (UC2-GOULD). The optimal tension for each vessel is applied and a stabilization period of 90 min is observed for the preparations. a) Antivasoconstrictive activity of the compounds of the invention in a physiological medium.

A further assay has as its system rabbit aorta. The assay is described as follows: Contraction of rabbit aorta induced by phorbol ester in a normal physiological medium. As to conditions: Oryctolagus cuniculus, TPA 10^-5 M, read-out: IC50, phorbol ester stimulus. The arrangement: species or system New Zealand rabbit. The procedure: Studies are carried out on rings, 3 mm in length, […] The vascular rings are immersed in a normal physiological solution or in a physiological solution lacking calcium (+0.2 mM of the chelating agent EGTA), which is thermostatically regulated at 37° C. and aerated with a 95% O2 +5% CO2 mixture. The rings are linked to a STATHAM tension sensor (UC2-GOULD). The optimal tension for each vessel is applied and a stabilization period of 90 min is observed for the preparations. a) Antivasoconstrictive activity of the compounds of the invention in a physiological medium.

Take `CN(CC1CCN(CCCOc2ccc(F)cc2)CC1)S(=O)(=O)c1cccc2cnccc12.Cl.Cl` [Example 17, N-Methyl-N-{[1-[3-(p-fluorophenoxy)propyl]-4-piperidyl]methyl}-5-isoquinolinesulfonamide dihydrochloride]: the “increase of the contraction relative to the control hearts” value in the assay on isolated heart is reported as “more than 100%”. In assay [1] (20 mg/kg oral, maximum after 2 hours), the “reduction of the vasopressor effect of phenylephrine” value is 60%. The “time of appearance of the inhibitory activity” value in assay [1] (after oral administration) is 30 min. In addition, in assay [1] (after oral administration, 20 mg/kg), the “time of maximum inhibitory activity” value worked out at 2 h. In addition, the “duration for which the inhibitory activity remains stable” value in assay [1] (oral) is 6 h. The inhibition at 10 µM in the assay on pig coronary artery came out at 64%. Also, the 50% inhibitory concentration (IC50) in the assay on rabbit aorta worked out at 21 µM.

The term inhibition denotes the drop in the measured response relative to a control, in per cent. In general, IC50 refers to the concentration that gives 50% inhibition.

Source of the values: US5208243A, “5-isoquinolinesulfonamides” (Adir et Compagnie, priority 1991, dated 1993).
